The test system of this experiment is human pancreatic cancer cells (MIA-Paca-2). Description: Cell growth inhibitory effect, alamarBlue. The experiment is classed as cell-based. The following applies: MIA-Paca-2, cultured for 3 days. The procedure:
Each of the test compounds (DMSO solutions in various concentrations) was added to 100 μL of a culture solution containing human pancreatic cancer cells (MIA-Paca-2) (cell count: about 5×10^3 cells) and cultured for 3 days. The cell growth inhibitory effect was investigated by fluorescence color development using alamarBlue reagent. Each of their IC50 values was determined.
In general terms: Resazurin is reduced to fluorescent resorufin, in cell work by metabolically active cells.

A word on the IC50: it is the concentration needed to halve the response being measured. Low values mean higher potency, high ones lower potency. Regarding “O,′-Di (4-fluoro)benzyl 2′-deoxy-2′,2′-difluoro-5′-cytidylate [Compound (1)]”, 9.8 µM corresponded to half-maximal inhibition (IC50).

For the compound `Nc1ccn([C@@H]2O[C@H](CO)[C@@H](O)C2(F)F)c(=O)n1` [Gemcitabine, 2′-Deoxy-2′,2′-difluorocytidine, reference compound], the IC50 (Homo sapiens, 72 h) was 7.4 µM.

Regarding “O,O′— Di(4-bromo)benzyl 2′-deoxy-2′,2′-difluoro-5′-cytidylate [Compound (3)]”, it took 21.8 µM to reach half-maximal inhibition (IC50).

“O,O′— Di (4-chloro)benzyl 2′-deoxy-2′,2′-difluoro-5′-cytidylate [Compound (2)]” had an IC50 of 18 µM.

For the origin of these results see patent US20200123190A1.
